Data set [1] deals with ABCG2. The data set is described as follows: RT-Q-PCR ABCG2 transcript level in monocyte-derived DCs. Format: cell-based, human. The procedure: (§1) Cell culture and ligand treatment—Monocytes (98% CD14+) were obtained from buffy coats by Ficoll gradient centrifugation and immunomagnetic cell separation using anti-CD14-conjugated microbeads (VarioMACS; Miltenyi Biotec). […] Cells were cultured for 5 or 6 days (unless otherwise indicated) and the IL-4 and GM-CSF addition was repeated at day 3. Ligands or vehicle control (50% DMSO/ethanol) were added to the cell culture from the first day on. MonoMac-6 (MM6) cells were a kind gift of E. Duda (Biological Research Center, Szeged, Hungary).

The next data set concerns ABCA1. Briefly: RT-Q-PCR ABCA1 mRNA level in DCs. The class given is cell-based, human. The following applies: DCs cultured 24 h, 1 μM RSG or 1 μM T0901317. As for the experimental part: as §1
The test system of the next data set is ABCG1. Briefly: RT-Q-PCR ABCG1 mRNA level in DCs. Format: cell-based, human. The following applies: DCs cultured 24 h, 1 μM RSG or 1 μM T0901317. The procedure:
as §1

Data set [2] deals with CD1a. The data set is described as follows: RT-Q-PCR CD1a transcript level in DCs. Format: cell-based, human. The following applies: PPARg activated DCs with 1 μM KO143; relative to cyclophilin A. The procedure: (§2) Cell culture and ligand treatment—Monocytes (98% CD14+) were obtained from buffy coats by Ficoll gradient centrifugation and immunomagnetic cell separation using anti-CD14-conjugated microbeads (VarioMACS; Miltenyi Biotec). DCs were prepared as described previously (Szatmari, I. et al. (2004) Immunity 21, 95-106). In brief, monocytes were resuspended into six-well culture dishes at a density of 1.5×10^6 cells/ml and cultured in RPMI 1640 supplemented with 10% FBS (Invitrogen), containing 800 U/ml GM-CSF (Leucomax) and 500 U/ml IL-4 (Peprotech). Cells were cultured for 5 or 6 days (unless otherwise indicated) and the IL-4 and GM-CSF addition was repeated at day 3. Ligands or vehicle control (50% DMSO/ethanol) were added to the cell culture from the first day on. MonoMac-6 (MM6) cells were a kind gift of E. Duda (Biological Research Center, Szeged, Hungary). These cells were cultured in RPMI 1640 supplemented with 10% FBS.

Another data set deals with CD80. The data set is described as follows: FACS cell surface expression of CD80 on DCs. Format: cell-based, human. The following applies: PPARg activated DCs (2.5 μM RSG) with 1 μM KO143. The procedure:
(§3) FACS analysis—Cell staining was performed using FITC- or PE-conjugated monoclonal antibodies: Labeled antibodies for flow cytometry included anti-CD1a-PE, CD1d-PE, CD80-PE, CD86-PE and isotype-matched controls (BD PharMingen). For the ABCG2 detection cells were fixed with 1% paraformaldehyde for 5 min, then incubated with unlabeled anti-ABCG2 (5D3) or isotype-matched control (R and D system) antibody for 30 min at 37° C., followed by staining with FITC-labeled anti-mouse antibody (BD PharMingen). The fluorescence of labeled cells was measured by using a FACSCalibur flow cytometer (Beckton Dickinson).

Data set [3] has as its system ABCG2. The data set is described as follows: Hoechst 33342 retention in DCs by CLSM and FACS. Format: cell-based, human. The following applies: stimulated DCs, 1 μM KO143. As for the experimental part: Measurement of Hoechst retention by CLSM and FACS—DCs were plated on Lab-Tek coverslip chambers. Cells were incubated with 0.5 μg/ml Hoechst 33342 for 1 h at 37° C. with or without KO143 (1 μM), then subjected to microscopic analysis. Hoechst fluorescence was measured on a Zeiss LSM 510 confocal microscope with a Plan-Apochromat 60× (NA 1.4) oil immersion objective using maximal detection pinhole diameter (1 mm) to get signal from the whole depth of the nucleus. Hoechst was excited by the 351 and 364 nm lines of an Ar ion laser, emission was measured through a 385-to-470 nm bandpass filter.
Hoechst content was also measured on a Becton Dickinson FACSVantage flow cytometer. Hoechst fluorescence was excited by the 351 and 364 nm lines and the blue and red Hoechst signals were detected through 402-to-446 nm and >650 nm filters, respectively.

Data set [4] deals with CD1a. Briefly: FACS cell surface expression of CD1a on DCs. Format: cell-based, human. The following applies: PPARg activated DCs (2.5 μM RSG) with 1 μM KO143. As for the experimental part:
as §3

For the next data set, the system named is CD86. Briefly: FACS cell surface expression of CD86 on DCs. Format: cell-based, human. The following applies: PPARg activated DCs (2.5 μM RSG) with 1 μM KO143. As for the experimental part:
as §3

A further data set relates to CD1d. The data set is described as follows: FACS cell surface expression of CD1d on DCs. Format: cell-based, human. The following applies: PPARg activated DCs (2.5 μM RSG) with 1 μM KO143. The procedure: as §3
In data set [5] the test system is FABP4. Briefly: RT-Q-PCR FABP4 transcript level in monocyte-derived DCs. Format: cell-based, human. As for the experimental part:
as §2

The subject of another data set is DCs. The following applies: MTT.
Data set [6] deals with ABCG2. Briefly: Mitoxantrone uptake in DCs by FACS. The class given is cell-based, human. The following applies: 30 min. The procedure: Measurement of mitoxantrone uptake by FACS analyses—Cells were resuspended in phenol red free HPMI medium containing the desired fluorescent compound (20 μM mitoxantrone) with or without KO143 (1 μM) and incubated at 37° C. for 30 min, Thereafter the cells were washed with cold HPMI and subjected to flow cytometric analyses. The cells were assessed for fluorescence intensity with a FACSCalibur cytometer (Beckton Dickinson).

Data set [7] has as its system ABCG2. The data set is described as follows: Flow cytometry of ABCG2 cell surface expression in DCs (5D3 antibody). Format: cell-based, human. The following applies: DCs treated with RSG plus GW9662. As for the experimental part: as §3
For the next data set, the system named is PPARg. The data set is described as follows: RT-Q-PCR PPARg transcript in MM6 cells after RNA interference. The class given is cell-based. The following applies: MM6 cells electroporated with 1.5 μg siRNA. The procedure: (§4) RNA interference—For siRNA delivery the AMAXA's Nucleofection technology (AMAXA) was applied. MM6 cells (1×10^6) were harvested and electroporated with 1.5 μg siRNA using the Cell line nucleofector kit V (AMAXA), program v-001. Applicants used a previously described PPARg specific siRNA sequence (Kelly, D. et al. (2004) Nat Immunol 5, 104-112): […]-d(TT) (SEQ ID NO. 10). As a negative control, Silencer Negative Control 1 siRNA (Ambion) was used.
as §2

A further data set concerns PPARd. Briefly: RT-Q-PCR PPARd transcript in MM6 cells after RNA interference. The class given is cell-based. The following applies: MM6 cells electroporated with 1.5 μg siRNA. As for the experimental part: as §4, §2
The subject of data set [8] is ABCG2. Briefly: RT-Q-PCR ABCG2 transcript in MM6 cells. The following applies: after RSG alone or with LG268, 24 h. Format: cell-based. The procedure: as §4, §2
The subject of data set [9] is FABP4. Briefly: RT-Q-PCR FABP4 transcript in MM6 cells. The class given is cell-based. The following applies: after RSG alone or with LG268, 24 h. The procedure:
as §4, §2

For data set [10] the following is noted: patients treated with 4 mg RSG; cited from earlier work.
The target in data set [11] is T1, PPARgamma:RXRalpha heterodimer (Mus musculus (PPARg); Homo sapiens …, UniProt P37238;P19793 P37238:1-505,P19793:1-462). Briefly: EMSA; supershift with both antibodies; some aspecific binding also in blank. The following applies: tags: T7 Quick TNT, full-length; label: 32P.
In data set [12] the target is T1, PPARgamma:RXRalpha heterodimer. Briefly: competition; cold mutant at x10 and x20 does not compete. The following applies: tags: T7 Quick TNT, full-length.
For data set [13] the target is unchanged. The data set is described as follows: EMSA; supershift with anti-RXRa and anti-PPARg; competed by cold WT. The following applies: tags: T7 Quick TNT, full-length; label: 32P.
The mark [14] stands for this setting: ligand treated monocyte-derived DCs: 2.5 μM RSG, 100 nM GW347845X, 1 μM troglitazone, relative to 36B4.

Values joined by “and” are separate entries in the source; they are usually repeats but may differ in a detail not shown here. Identical values can stand only once.

Here are results for 13 molecules from patent publication US20090155228A1, “COMPOUNDS, KITS AND METHODS FOR CONFERRING CYTOPROTECTION” (priority 2006, published 2009).

Consider `O=S(=O)(c1ccccc1)N(CC(F)(F)F)c1ccc(C(O)(C(F)(F)F)C(F)(F)F)cc1` [T0901317], for which the “ABCG2 mRNA expression with LXR specific agonist” value with ABCG2 [1] (DCs cultured 24 h, 1 μM T0901317) was “did not affect”. The “ABCA1 mRNA expression” value with ABCA1 is on record as “profound upregulation”. In the data set on ABCG1, the “ABCG1 mRNA expression” value was “profound upregulation”.
As to `COc1ccc2c3c([nH]c2c1)[C@H](CC(C)C)N1C(=O)[C@H](CCC(=O)OC(C)(C)C)NC(=O)[C@@H]1C3` [KO143], the “CD1a mRNA expression with ABCG2 inhibitor” value in the data set on CD1a [2] is “reduced”. Also, the “Cell surface expression of CD80 with ABCG2 inhibitor” value in the data set with CD80 is “did not change”. Moreover, the “Effect of ABCG2 inhibitor on reduced Hoechst dye accumulation” value with ABCG2 [3] is given as “abolished the effect of the PPARg ligand treatment”. The “Cell surface expression of CD1a with ABCG2 inhibitor” value in the data set with CD1a [4] is given as “slightly decreased”. In the data set on CD86, the “Cell surface expression of CD86 with ABCG2 inhibitor” value is “did not change”. Also, the “Cell surface expression of CD1d with ABCG2 inhibitor” value in the data set with CD1d was “did not change”. Besides, the “Transcript level of FABP4 with ABCG2 inhibitor” value in the data set on FABP4 [5] (PPARg activated DCs with 1 μM KO143, relative to cyclophilin A) was “did not change”. Moreover, the “Effect of ABCG2 inhibitor on protection against mitoxantrone” value in the data set with DCs (RSG treated DCs with KO143, 48 h) is “removed this protective effect”. The “Mitoxantrone extrusion by ABCG2 in activated cells” value in the data set with ABCG2 [6] (1 μM KO143, 20 μM mitoxantrone) was “fully inhibited”.
For `O=C(Nc1ccccc1)c1cc([N+](=O)[O-])ccc1Cl` [GW9662], the “Cell surface expression of ABCG2 protein with PPARg antagonist” value with ABCG2 [7] is reported as “reduced”. Also, the “Effect of PPARg antagonist on RSG induction of ABCG2 mRNA” value with ABCG2 [1] (DCs, 2.5 μM RSG with 5 μM GW9662) is “abolished the induction of ABCG2”.
Consider `COC(=O)c1ccccc1N[C@@H](Cc1ccc(OCCc2nc(-c3ccccc3)oc2C)cc1)C(=O)O` [GW347845X], for which, in the data set with ABCG2 [1] (setting [14]), the “ABCG2 mRNA expression” value is listed as “induced”. The “FABP4 mRNA expression” value with FABP4 [5] (setting [14]) is given as “induced”.
`O=C1c2c(O)ccc(O)c2C(=O)c2c(NCCNCCO)ccc(NCCNCCO)c21` [mitoxantrone]: in the data set on DCs (mitoxantrone 1.25 or 2.5 μg/ml, 48 h), the “Cell viability of control DCs” value was “induced cell death”. For the same molecule, in the data set with ABCG2 [6] (20 μM mitoxantrone), the “Mitoxantrone accumulation in control DCs” value is on record as “rapid”.
“GCCCTTCACTACTGTTGAC-d(TT) (sense GCCCTTCACTACTGTTGACTT; 3' dTdT overhang, further chemistry not given here) [PPARg-specific siRNA]”: the “Expression of endogenous PPARg” value with PPARg is given as “effectively inhibited”. For the same molecule, in the data set on PPARd, the “Expression of PPARd” value is reported as “did not interfere”. Also, the “Induction of ABCG2 in siRNA treated MM6 cells” value with ABCG2 [8] is “impaired induction”. In addition, in the data set with FABP4 [9], the “Induction of FABP4 in siRNA treated MM6 cells” value is reported as “impaired induction”.
Regarding `CN(CCOc1ccc(CC2SC(=O)NC2=O)cc1)c1ccccn1` (centres unmarked) [rosiglitazone], the Plasma concentration in data set [10] was 50-350 ng/ml and 100-1000 nM.

B1: ABCG2 element C WT (dsDNA)
DNA 1: GGTCATTAGGTCAGATGTTAGATGA
DNA 2: TCATCTAACATCTGACCTAATGACC
For the molecule B1, in [11], the binding result is listed as “binds”.

B2: ABCG2 element B WT (dsDNA)
DNA 1: GGGCACAAGGTTAAAGGTTAAGTGA
DNA 2: TCACTTAACCTTTAACCTTGTGCCC
For the molecule B2, the binding result in [11] is listed as “binds”.

B3: ABCG2 element A mut (dsDNA)
DNA 1: GGGGTGGGCGAGAGAGGGCAATGGC
DNA 2: GCCATTGCCCTCTCTCGCCCACCCC
Regarding B3, in [12], the binding result was “no binding”.

B4: ABCG2 element C mut (dsDNA)
DNA 1: GGTCATTTCGAGAGATGTTAGATGA
DNA 2: TCATCTAACATCTCTCGAAATGACC
Turning to B4, in [12], the binding result is “no binding”.

B5: ABCG2 element B mut (dsDNA)
DNA 1: GGGCACATTGAGAAAGGTTAAGTGA
DNA 2: TCACTTAACCTTTCTCAATGTGCCC
On to B5, for which, in [12], the binding result is listed as “no binding”.

B6: ABCG2 element A WT (dsDNA)
DNA 1: GGGGTGGAGGGCAGAGGGCAATGGC
DNA 2: GCCATTGCCCTCTGCCCTCCACCCC
As to B6, the binding result in data set [13] is given as “binds”.
